Assays:
wild-type hGDH = molecular target: T1, wild-type hGDH (Homo sapiens, UniProt P00367); experiment: Biolayer interference-based binding assay (Ni-NTA biosensor), wild-type hGDH; conditions: His-tagged wild-type hGDH 20 μg/mL on Ni-NTA biosensor; read-out: estimated KD
T1 construct: confirming that these are the full-length wild-type hGDH; made in house; host or cells: E. coli BL21 (pET-30a)
Procedure: (§1) After immobilization of His-tagged wild-type GDH or hGDHH454Y (20 μg/mL) on a Ni-NTA biosensor, the probe was immersed in a series of dilutions of EGCG to measure binding.
(§2) The inhibitor/substrate binding assays were performed in 3 steps: step one is coating the Ni-NTA biosensor with the human wild type and the mutant GDH proteins (20 μg/mL) for 30 min; step two is dipping the coated individual sensor into a series dilution of substrates or inhibitors, such as EGCG (0, 1, 10, 100, 1000, 10000 μM; 10-fold dilution) or trypsin (0, 0.08, 0.25, 0.75, 2.25, 6.75 μM; 3-fold dilution) for 100 s, to obtain the on-rate (kon); step three is dipping to wash with phosphate-buffered saline (PBS) for 100 s. to measure the off-rate (koff). The KD was calculated by dividing […].

hGDHH454Y [1] = molecular target: T2, hGDHH454Y (Homo sapiens, UniProt P00367, H507Y); experiment: Biolayer interference-based binding assay (Ni-NTA biosensor), hGDHH454Y; conditions: His-tagged hGDHH454Y 20 μg/mL on Ni-NTA biosensor; read-out: estimated KD
T2 construct: made in house; host or cells: E. coli BL21 codon plus (pET-30a)
Procedure: as §1, §2

hGDHH454Y [2] = experiment: as above; set-up: species or system human; conditions: KD hGDHH454Y versus wild-type
Procedure: as §1, §2

bovine GDH [3] = molecular target: T3, bovine GDH (Bos taurus, UniProt P00366); experiment: GDH inhibition assay (EZMTT detection); format: biochemical; conditions: for increase in IC50 on increasing GDH concentration by 8 times: 0.3 to 2.5 mg/mL GDH
T3 construct: purchased
Procedure: Since both GTP and EGCG are known allosteric GDH inhibitors, we tested their dose-dependent inhibition of different levels of GDH protein. […] EGCG inhibition of GDH is less affected by the GDH enzyme concentration.
[…] After 0.5 h pre-incubation, a mixture of Glu (10 mM final), NADP^+ ([…]), and the EZMTT detection reagent were added to each well, and the reaction was carried out at room temperature for 1 h before the absorbance measurement at 450 nm. To exclude assay artifacts, controls with no GDH were also used, and all experiments were carried out in triplicate and repeated 3 times.

bovine GDH [4] = molecular target: T3, bovine GDH; experiment: Trypsin degradation assay of bovine GDH (SDS-PAGE gel); format: biochemical; conditions: 20 μg/mL trypsin; for effect on trypsin digestion of Bo.GDH: low and high concentrations (GTP 10 or 50 mM; EGCG 0.05 or 5 mM), 37 °C 1 h
Procedure: (§3) Trypsin (final concentration 20 μg/mL) were mixed with 1 mg/mL (final concentration) hGDH-H454Y or bovine-GDH or BSA, respectively, in Eppendorf (EP) tubes in a phosphate buffer (pH8; 10 mM Na3PO4, 50 mM K3PO4, 100 mM NH4HCO3, 0.1% Tween80 and 0.1% Tween). Then proteins were subjected to digestion in a wet chamber at 37 °C for 1 h. Each sample was analyzed by denaturing SDS-PAGE gel. All experiments were repeated 3 times.
(§4) 2.5 mg/mL bovine GDH (final concentration) or 2.5 mg/mL BSA proteins were mixed with various compounds (10 mM or 50 mM GTP; 0.05 mM or 5 mM EGCG) in EP tubes at room temperature for 1 h. To each tube, 20 μg/mL trypsin was added, and the reaction was carried out in a wet chamber at 37 °C for 1 h. Samples were analyzed by both denaturing SDS-PAGE gel and native-PAGE gel. All experiments were repeated 3 times.
(§5) The dried gel was placed in the imager and photographed after the bands were clear. The gray value of the bands was calculated on a uniform background using Image-J software (1.53a). The ratio of the gray value of the strips under each experimental condition to the gray value of the control strips was calculated, as it is the relative gray value of the strips under that experimental condition.

hGDHH454Y [5] = molecular target: T2, hGDHH454Y; experiment: Trypsin degradation assay of hGDHH454Y (SDS-PAGE gel); format: biochemical
Procedure: as §3, §4, §5

BSA = molecular target: T4, BSA (Bos taurus, UniProt P02769); experiment: Trypsin degradation assay of BSA (SDS-PAGE gel); format: biochemical, bovine
T4 construct: purchased Biosharp
Procedure: as §3, §4, §5

bovine GDH hexamer = molecular target: T5, bovine GDH hexamer (Bos taurus, UniProt P00366); experiment: Native-PAGE gel analysis of interaction of EGCG, bovine GDH and trypsin; format: biochemical
T5 construct: purchased
Text: To further understand the mechanism of EGCG promoting GDH protein degradation, we investigated the interactions among EGCG, GDH, and trypsin by native gel analysis. Because the bovine GDH protein sequence shares 98% homology with the human GDH sequence and 100% homology similarity in the substrate and regulatory binding sites, we used bovine GDH as a substitute for wild-type human GDH in our studies. […] Taken together, the mechanism might be the following: binding of EGCG to hexametric GDH breaks down the hexamer into monomers, and further EGCG–trypsin complex facilitates the GDH degradation.
as §4, §5

[6] = high concentrations: 50 mM GTP, 5 mM EGCG
[7] = lower concentrations: GTP 10 mM, EGCG 0.05 mM
[8] = 20 μg/mL trypsin, 1 mg/mL protein, 1 h

T5 sequence (P00366 58-558): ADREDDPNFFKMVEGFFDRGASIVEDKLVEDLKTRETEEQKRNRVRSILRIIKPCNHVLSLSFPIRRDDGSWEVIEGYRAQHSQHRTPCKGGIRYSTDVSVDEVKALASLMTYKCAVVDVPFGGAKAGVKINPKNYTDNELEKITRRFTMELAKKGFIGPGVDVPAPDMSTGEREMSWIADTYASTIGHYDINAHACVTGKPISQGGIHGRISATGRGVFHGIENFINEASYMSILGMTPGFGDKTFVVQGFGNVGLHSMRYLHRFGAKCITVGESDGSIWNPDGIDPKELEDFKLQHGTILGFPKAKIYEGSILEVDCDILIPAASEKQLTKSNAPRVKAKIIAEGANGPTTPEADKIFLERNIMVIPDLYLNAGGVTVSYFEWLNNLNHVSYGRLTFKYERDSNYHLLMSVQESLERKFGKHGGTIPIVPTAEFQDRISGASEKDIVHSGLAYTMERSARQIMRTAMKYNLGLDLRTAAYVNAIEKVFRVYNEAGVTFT
T3 sequence (P00366 58-558): as above
T2 sequence (P00367 54-558 H507Y): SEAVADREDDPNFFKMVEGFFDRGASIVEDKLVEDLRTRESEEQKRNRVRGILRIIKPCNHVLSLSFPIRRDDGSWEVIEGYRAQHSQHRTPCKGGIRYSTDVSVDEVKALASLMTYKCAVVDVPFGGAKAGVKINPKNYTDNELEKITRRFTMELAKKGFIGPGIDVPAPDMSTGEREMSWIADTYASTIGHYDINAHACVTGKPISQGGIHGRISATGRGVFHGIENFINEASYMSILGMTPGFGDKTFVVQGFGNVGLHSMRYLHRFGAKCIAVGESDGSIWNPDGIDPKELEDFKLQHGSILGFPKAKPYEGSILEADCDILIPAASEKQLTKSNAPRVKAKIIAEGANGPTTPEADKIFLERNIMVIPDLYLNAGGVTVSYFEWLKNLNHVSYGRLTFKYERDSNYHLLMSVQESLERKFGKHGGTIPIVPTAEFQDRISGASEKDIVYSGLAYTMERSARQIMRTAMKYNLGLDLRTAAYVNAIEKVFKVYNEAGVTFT
T4 sequence (P02769 25-607): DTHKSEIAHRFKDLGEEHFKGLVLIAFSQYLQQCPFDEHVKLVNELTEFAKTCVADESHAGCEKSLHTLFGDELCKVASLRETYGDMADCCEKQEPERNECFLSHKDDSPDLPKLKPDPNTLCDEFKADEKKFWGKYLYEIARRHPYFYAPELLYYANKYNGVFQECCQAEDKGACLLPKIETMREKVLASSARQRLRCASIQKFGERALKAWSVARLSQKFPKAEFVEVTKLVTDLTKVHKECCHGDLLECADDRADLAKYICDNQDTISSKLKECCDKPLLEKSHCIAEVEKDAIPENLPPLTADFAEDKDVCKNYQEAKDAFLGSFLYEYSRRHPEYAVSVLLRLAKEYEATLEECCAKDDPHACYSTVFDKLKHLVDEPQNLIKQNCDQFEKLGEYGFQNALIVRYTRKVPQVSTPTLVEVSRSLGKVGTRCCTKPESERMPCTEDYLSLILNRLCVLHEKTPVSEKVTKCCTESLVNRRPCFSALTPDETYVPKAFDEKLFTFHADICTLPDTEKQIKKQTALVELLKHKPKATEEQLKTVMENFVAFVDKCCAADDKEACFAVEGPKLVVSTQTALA
T1 sequence (P00367 54-558): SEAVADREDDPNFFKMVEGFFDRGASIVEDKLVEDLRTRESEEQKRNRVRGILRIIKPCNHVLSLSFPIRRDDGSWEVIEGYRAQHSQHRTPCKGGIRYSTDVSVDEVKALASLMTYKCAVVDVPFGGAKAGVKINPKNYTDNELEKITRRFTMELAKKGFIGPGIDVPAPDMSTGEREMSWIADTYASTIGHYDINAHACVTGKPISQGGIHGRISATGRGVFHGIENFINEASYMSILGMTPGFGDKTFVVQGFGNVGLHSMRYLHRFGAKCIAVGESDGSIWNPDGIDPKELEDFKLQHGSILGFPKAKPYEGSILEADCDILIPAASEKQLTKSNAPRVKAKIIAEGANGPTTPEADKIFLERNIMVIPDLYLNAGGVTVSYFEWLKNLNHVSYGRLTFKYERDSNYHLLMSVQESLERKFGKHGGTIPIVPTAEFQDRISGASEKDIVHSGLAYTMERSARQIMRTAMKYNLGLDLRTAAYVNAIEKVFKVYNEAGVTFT

Row | Compound | Kd (wild-type hGDH) | Kd (hGDHH454Y [1]) | fold stronger affinity (KD) for wild-type GDH than for the H454Y mutant (hGDHH454Y [2]) | increase in IC50 on increasing GDH concentration by 8 times (bovine GDH [3]) | IC50 (bovine GDH [3]; bovine GDH 0.3 mg/mL) | IC50 (bovine GDH [3]; bovine GDH 2.5 mg/mL) | effect on trypsin digestion of Bo.GDH (bovine GDH [4]) | effect on hGDHH454Y hydrolysis by trypsin (hGDHH454Y [5]; 5 mM EGCG) | effect on trypsin digestion of BSA (BSA; [6]) | effect on trypsin digestion of BSA (BSA; [7]) | effect on hexamers of bovine GDH (bovine GDH hexamer; 5 mM EGCG) | monomeric GDH degradation by trypsin (bovine GDH hexamer; 5 mM EGCG added to GDH and 20 μg/mL trypsin) | effect on hGDHH454Y hydrolysis by trypsin (hGDHH454Y [5]; GTP up to 50 mM) | degradation by trypsin alone (bovine GDH [4]; 1 mg/mL protein, 1 h) | degradation by trypsin alone (hGDHH454Y [5]; [8]) | degradation by trypsin alone (BSA; [8]) | effect on hexamers of bovine GDH (bovine GDH hexamer; trypsin 20–500 μg/mL)
1 | O=C(O[C@@H]1Cc2c(O)cc(O)cc2O[C@@H]1c1cc(O)c(O)c(O)c1)c1cc(O)c(O)c(O)c1 [EGCG, (−)-cis-2-(3,4,5-trihydroxyphenyl)-3,4-dihydro-1(2H)-benzopyran-3,5,7-triol 3-gallate] | 4.2 µM | 68 µM | 17 fold | 50 fold | 2.7 µM | 138 µM | greatly increased trypsin digestion in a dose-dependent manner | promote | promoted BSA degradation | essentially no significant effect | converted to monomers | more monomeric GDH degradation was observed |  |  |  |  | 
2 | Nc1nc2c(ncn2[C@@H]2O[C@H](COP(=O)(O)OP(=O)(O)OP(=O)(O)O)[C@@H](O)[C@H]2O)c(=O)[nH]1 [GTP] |  |  |  | 1000 fold | 16 µM | 16900 µM | prevented the trypsin digestion |  | prevented BSA digestion | essentially no significant effect |  |  | no effect |  |  |  | 
3 | Trypsin | < 1e-06 µM | 1500 µM | 10^9 fold |  |  |  |  |  |  |  |  |  |  | significant hydrolysis | did not show observable degradation | significant hydrolysis | converted to monomers
